Values after ≈ are worked out from the molar mass of the structure shown.
How the values were obtained:
KB = assay: MTT assay, mouth (KB); assay type: cell-based, human
Procedure: (§1) Cells. HTB-9 (bladder), HeLa-S3 (cervix), DU145 (prostate), H460 (lung), MCF-7 (breast), K562 (leukemia), HCT116 (colon), HepG2 (liver), U2OS (bone), T98G (brain), SK-MEL-5 (Skin) and OVCAR 3, ES2 (ovary), Pancreas (Capan), Mouth (KB), Kidney(A498).
(§2) MTT Assay. The procedure for MTT assay followed the method described by Carmichael et al. (1987) with modifications. The cells were seeded into a 96-well plate at for 24 hours before drug-treatment. The cells were then exposed to the drugs for 48, 72, or 96 hours. After the drug-treatment, MTT (0.5 mg/mL) was added to cultures and incubated for an hour. The formazan (product of the reduction of tetrazolium by viable cells) formed and was dissolved with DMSO and the O.D. at 490 nm, and was measured by an ELISA reader. The MTT level of the cells before drug-treatment was also measured (T0). The % cell-growth (%G) is calculated as: %G = (TD-T0 / TC-T0) x 100(1), where TC or TD represents O.D. readings of control or drug-treated cells. When T0 > TD, then the cytotoxicity (LC) expressed as % of the control is calculated as: %LC = (TD-T0 / T0) × 100(2).

K562 = assay: MTT assay, leukemia (K562); assay type: cell-based, human
Procedure: as §1, §2

HTB-9 = assay: MTT assay, bladder (HTB-9); assay type: cell-based, human
Procedure: as §1, §2

DU145 = assay: MTT assay, prostate (DU145); assay type: cell-based, human
Procedure: as §1, §2

OVCAR3 = assay: MTT assay, ovary (OVCAR3); assay type: cell-based, human; conditions: for IC50 of ovary (OVCAR3): MTT
Procedure: as §1, §2

SK-Mel-5 = assay: MTT assay, skin (SK-Mel-5); assay type: cell-based, human
Procedure: as §1, §2

H460 = assay: MTT assay, lung (H460); assay type: cell-based, human; conditions: for IC50 of lung (H460): MTT
Procedure: as §1, §2
Methods: • A. Cells • -- H460 cells are derived from a Human Lung large cell carcinoma. Cells were grown in RPMI 1640 medium supplemented with 10% FCS, antibiotics and glutamine. 5000 cells were seeded in a well (96-welled plate) for one day before drug-treatment • B. Drug treatment: • -- Drug: Tig-S (stored as a 1000x stock solution in DMSO) was used. • -- Drug concentration used: from 0.15 - 20 ug/ml. • -- Drug-treatment was carried out for 1, 2 and 4 days. For the 4 days incubation, cells were fed with fresh medium (with drug) on day 2. • C. At the end of the drug-treatment, cytotoxic test was performed with MTT assay. Results: • 1. Tig-S inhibits H460 cells’ growth with the IC50 of drug 3 ug/ml. • 2. […] cells growth inhibition was observed beyond drug 5 ug/ml. • 3. No dead cell was found at drug concentration in 20 ug/ml.

HepG2 = assay: MTT assay, liver (HepG2); assay type: cell-based, human
Procedure: as §1, §2

T98G = assay: MTT assay, brain (T98G); assay type: cell-based, human
Procedure: as §1, §2

Hey8A cells = assay: Inhibition of cell adhesion, Hey8A; assay type: cell-based; conditions: 5 ug/ml, 5 hours
Procedure: Methods and Results. ES2 or Hey8A cells were plated in T25 flasks with medium containing 5 ug/ml of compounds selected from structure (2A) including E4A-Tig-R, E4A-Tig-V, E4A-Tig-S, E4A-Tig-N, E4A-Tig-Q, E4A-Tig-T. Cultures were incubated for 5 hours. Attached cells were removed from flasks by trypsinization and the numbers/amounts were counted. Compared to no drug controls, 80 ± 4% of ES2 cells and 60 ± 4% of Hey8A cells were found attached to flasks under this condition. At 5 ug/ml of above compounds, over 90% of unattached cells are alive as determined by the trypan Blue exclusion assay and by their ability to re-attach to flasks when plating in medium without tested compounds. However, with 10 ug/ml tested compounds, less than 40% of cells attached to flasks and many of them are dead cells.

HCT116 = assay: MTT assay, colon (HCT116); assay type: cell-based, human
Procedure: as §1, §2

HeLa = assay: MTT assay, cervix (HeLa); assay type: cell-based, human
Procedure: as §1, §2

Row | IC50 of mouth (KB) (KB) | IC50 of leukemia (K562) (K562) | IC50 of prostate (DU145) (DU145) | IC50 of ovary (OVCAR3) (OVCAR3) | IC50 of skin (SK-Mel-5) (SK-Mel-5) | IC50 of lung (H460) (H460) | IC50 of liver (HepG2) (HepG2) | IC50 of colon (HCT116) (HCT116) | IC50 of cervix (HeLa) (HeLa) | Compound | IC50 of bladder (HTB-9) (HTB-9) | IC50 of brain (T98G) (T98G) | Hey8A cells attached to flasks compared to no drug controls (Hey8A cells) | IC50, ovarian cancer (OCAR3) cells' growth (OVCAR3; FIG. 37) | IC50, lung H460 cells growth (H460; 4 days) | IC50, H460 cells' growth (H460; Experiment 32, treatment 1, 2 and 4 days) | dead cells, H460 (H460; at 20 ug/ml) | IC50, lung H460 cells growth (H460; one day)
1 | 3 µg/mL | 2 µg/mL | 3.6 µg/mL | 5.8 µg/mL | 5.1 µg/mL | 4.8 µg/mL | 6 µg/mL | 5.2 µg/mL |  | 24,28-O-Tigloyl-3β,16α, 21β, 22a, 24β, 28-hexahydroxyolean-12-ene [Tig-R] | 2.5 µg/mL | 8 µg/mL | 60 ± 4% |  |  |  |  | 
2 | 9 µg/mL | 6 µg/mL | 4.8 µg/mL | 18 µg/mL | 15 µg/mL | 13 µg/mL | 18 µg/mL | 15 µg/mL | 15 µg/mL | CC=C(C)C(=O)OCC1(C)C(O)CCC2(C)C1CCC1(C)C2CC=C2C3CC(C)(C)C(O)C(O)C3(CO)C(O)CC21C (centres unmarked) [Tig-N] | 7.5 µg/mL | 19 µg/mL | 60 ± 4% |  |  |  |  | 
3 | 13 µg/mL | 9 µg/mL | 16 µg/mL | 25 µg/mL | 22 µg/mL | 21 µg/mL | 26 µg/mL | 23 µg/mL | 18 µg/mL | CC=C(C)C(=O)OCC1(C)C(O)CCC2(C)C1CCC1(C)C2CC=C2C3CC(C)(C)C(O)C(OC(=O)C(C)=CC)C3(COC(=O)C(C)=CC)C(O)CC21C (centres unmarked) [Tig-T] |  | 26 µg/mL | 60 ± 4% |  |  |  |  | 

Row | Compound | IC50 of mouth (KB) (KB) | IC50 of leukemia (K562) (K562) | IC50 of prostate (DU145) (DU145) | IC50 of ovary (OVCAR3) (OVCAR3) | IC50 of skin (SK-Mel-5) (SK-Mel-5) | IC50 of lung (H460) (H460) | IC50 of liver (HepG2) (HepG2) | IC50 of colon (HCT116) (HCT116) | IC50 of cervix (HeLa) (HeLa) | IC50 of bladder (HTB-9) (HTB-9) | IC50 of brain (T98G) (T98G) | Hey8A cells attached to flasks compared to no drug controls (Hey8A cells) | IC50, ovarian cancer (OCAR3) cells' growth (OVCAR3; FIG. 37) | IC50, lung H460 cells growth (H460; 4 days) | IC50, H460 cells' growth (H460; Experiment 32, treatment 1, 2 and 4 days) | dead cells, H460 (H460; at 20 ug/ml) | IC50, lung H460 cells growth (H460; one day)
4 | CC=C(C)C(=O)OCC1(C)C(O)CCC2(C)C1CCC1(C)C2CC=C2C3CC(C)(C)C(OC(=O)C(C)=CC)C(O)C3(CO)C(O)CC21C (centres unmarked) [Tig-S] |  | 4.3 µg/mL | 4.3 µg/mL | 6.5 µg/mL | 5.8 µg/mL | 5.6 µg/mL | 8.5 µg/mL | 6.6 µg/mL | 7 µg/mL | 3.5 µg/mL | 9 µg/mL | 60 ± 4% | 2.5 µg/mL (≈ 3.73 µM) | 3 µg/mL (≈ 4.47 µM) | 3 µg/mL (≈ 4.47 µM) | No dead cell | 3.4 µg/mL (≈ 5.07 µM)

Source: US20230340012A1, “NATURAL AND SYNTHETIC COMPOUNDS FOR TREATING CANCER AND OTHER DISEASES” (PACIFIC ARROW LIMITED, priority 2009, published 2023)
